A short description of data set [1]: In Vitro Microsome Stability Assay (monkey). The class given is in vitro ADME. As to conditions: monkey, 30 min, NADPH. Put shortly:
(§1)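 The value reported is the percentage of parent left after 30 min, calculated from analyte/IS peak-area ratios relative to time zero by LC-MS/MS. Incubations ran at 37° C in 0.1 M potassium phosphate with NADPH and microsomes (stock 20 mg/mL), with compound added from a 0.25 mM DMSO stock. Acetonitrile containing IS stopped the reactions.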

The nature of data set [2]: In Vitro Microsome Stability Assay (mouse). The format is in vitro ADME. As to conditions: mouse, 30 min, NADPH. Put shortly: as §1
Data set [3] is described as follows: In Vitro Microsome Stability Assay (rat). The settings on record: rat, 30 min, NADPH. The format is in vitro ADME. In a few lines: as §1
Data set [4] is described as follows: In Vitro Microsome Stability Assay (human). The format is in vitro ADME. As to conditions: human, 30 min, NADPH. In a few lines: as §1
Data set [5] has as its system multiple myeloma cell line U266B1. The data set can be described thus: U266 Cell Viability Assay. The class given is cell-based, human. The settings on record: Homo sapiens, U-266; 48 hr, U266; read-out: 48 hr U266 Viability Celltiter-Glo: Mean EC50. Put shortly:
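U266B1 myeloma cells in RPMI 1640 with 10% FBS were treated with compound dilutions for 48 h at 37° C, 5% CO2. Viability was read as CellTiter-Glo luminescence. Data for structures drawn without stereochemistry refer to stereoisomer mixtures.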

The test system of data set [6] is full length IL-2 (amino acids 1-153) fused to Gaussia Luciferase. Briefly: Dox Induced IL2-FL-Gluc Assay. The class given is cell-based. The settings on record: 24 hr, 293FRT/TO; read-out: 24 hr Dox Inducible IL2FLGluc 293FRT/TO: Mean IC50. In a few lines:
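Flp-In 293 T-REx stable line expressing full-length IL-2 (aa 1-153) with C-terminal Gaussia luciferase fusion under doxycycline-inducible control. Cells plated the day before; compound dilutions added in DMSO/media containing doxycycline, incubated at 37° C, 5% CO2.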

Data set [7] concerns multiple myeloma cell line NCl-H929. Briefly: H929 Cell Viability Assay. As to conditions: Homo sapiens, NCI-H929, 48 h, H929, read-out: 48 hr H929 Viability Celltiter-Glo: Mean EC50. The class given is cell-based, human. Put shortly:
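NCI-H929 myeloma cells in RPMI 1640 with 10% FBS were treated with compound dilutions for 48 h at 37 °C, and viability was then read by CellTiter-Glo luminescence. Compounds drawn without stereochemistry were tested as stereoisomer mixtures.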

Data set [8] relates to full length PD1 (amino acids 1-288) fused to Firefly Luciferase. Briefly: Dox Induced PD1-FL-Gluc Assay. The format is cell-based. As to conditions: 24 hr, 293FRT/TO; read-out: 24 hr Dox Inducible PD1FLFluc 293FRT/TO: Mean IC50. From the text: FIp-In 293 T-REx™ cells were transfected with pcDNA™5/FRT/TO plasmid inserted with cDNA encoding Firefly Luciferase fused to the 3′ end of cDNA encoding full length PD1 (amino acids 1-288). Transfected cells were selected for resistance to the selectable markers Hygromycin and Blasticidin to create a stable cell line that contained the PD1-FL/Firefly Luciferase cDNA insert whose expression was regulated under the T-REx™ system. The day before assay, cells were trypsinized and plated in 384-well tissue culture plates. The next day, compound dilutions in DMSO/media containing doxycycline were added to the wells and incubated at 37° C., 5% CO2.
For chemical structures that include one or more stereoisomers, but are illustrated without indicating stereochemistry, the assay data refers to a mixture of stereoisomers.

The test system of data set [9] is PD1 signal sequence plus 10 amino acids fused to Gaussia Luciferase (PD1-ss+10aa/Gaussia Luciferase). The data set can be described thus: Dox Induced PD1-ss-Gluc Assay. The class given is cell-based. The settings on record: 24 hr, 293FRT/TO; read-out: 24 hr Dox Inducible PD1ssGluc 293FRT/TO: Mean IC50. Put shortly:
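Stable Flp-In 293 T-REx line expressing the fusion under tetracycline-inducible control, plated the day before assay. Compound dilutions added with doxycycline and incubated at 37 °C, 5% CO2; unspecified stereocentres mean data refer to stereoisomer mixtures.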

The test system of data set [10] is full length TNFα (amino acids 1-233) fused to Gaussia Luciferase. Briefly: Dox Induced TNFα-FL-Gluc Assay. The format is cell-based. As to conditions: 24 hr, 293FRT/TO; read-out: 24 hr Dox Inducible TNFaFLGluc 293FRT/TO: Mean IC50. Put shortly:
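Stable Flp-In 293 T-REx line expressing doxycycline-inducible full-length TNFα fused to Gaussia luciferase; cells plated the day before, then treated with compound dilutions in doxycycline-containing medium at 37° C, 5% CO2. Unspecified stereocentres mean stereoisomer mixtures were tested.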

Counter-ions that a name gives are not always drawn.

As for `Cc1ccc(S(=O)(=O)N2CCCN(CC3CCCCC3)CCCN(S(=O)(=O)c3ccc(N(C)C)cc3)CC3(CC3)C2)cc1` [A11, 4-{[9-(cyclohexylmethyl)-13-(4-methylbenzenesulfonyl)-5,9,13-triazaspiro[2.11]tetradecan-5-yl]sulfonyl}-N,N-dimethylaniline hydrochloride], in [1], the “Liver Microsome Stability-% Left after 30 min w/ NADPH (%) Monkey” value (“Liver Microsome Stability-% Left … (%) Monkey” for short) is given as 0.08%. Also, in data set [2], the “Liver Microsome Stability-% Left after 30 min w/ NADPH (%) Mouse” value (shortened to “Liver Microsome Stability-% Left … (%) Mouse”) worked out at 0.18%. For the same compound, the “Liver Microsome Stability-% Left after 30 min w/ NADPH (%) Rat” value (shortened to “Liver Microsome Stability-% Left … (%) Rat”) in [3] turned out to be 0.17%. In addition, the “Liver Microsome Stability-% Left after 30 min w/ NADPH (%) Human” value (“Liver Microsome Stability-% Left … (%) Human” for short) in data set [4] is recorded as 0.21%. In addition, the EC50 in data set [5] and in data set [7] was above 25000 nM each time. Also, the IC50 in data set [6] is 624 nM; in [8] it was 866 nM; in [9] it was 365 nM; in data set [10] it was above 25000 nM.
Turning to `C[C@H]1CN(S(=O)(=O)c2ccc(N(C)C)cc2)CCCN(CC2CCCCC2)CCCN(S(=O)(=O)N2CCC(c3ccccc3)CC2)C1` [A77, 4-{[(3S)-9-(cyclohexylmethyl)-3-methyl-5-[(4-phenylpiperidin-1-yl)sulfonyl]-1,5,9-triazacyclododecan-1-yl]sulfonyl}-N,N-dimethylaniline], the “Liver Microsome Stability-% Left … (%) Monkey” value in data set [1] amounted to 20.8%. The “Liver Microsome Stability-% Left … (%) Mouse” value in data set [2] came to 37.3%. In addition, the “Liver Microsome Stability-% Left … (%) Rat” value in data set [3] is 32.5%. In addition, in [4], the “Liver Microsome Stability-% Left … (%) Human” value is listed as 30.1%. Further, the values for the EC50 in data set [5] and in data set [7] were above 25000 nM and 4010 nM, respectively. For the same compound, the IC50 in data set [6] was determined as 360 nM; in data set [8] it was 338 nM; in data set [9], 95 nM; in [10], 5540 nM.
Consider `C[C@@H]1CN(S(=O)(=O)c2ccc(N(C)C)cc2)CCCN(CC2CCCCC2)CCCN(S(=O)(=O)N2CCC(c3ccccc3)CC2)C1` [A76, 4-{[(3 R)-9-(cyclohexylmethyl)-3-methyl-5-[(4-phenylpiperidin-1-yl)sulfonyl]-1,5,9-triazacyclododecan-1-yl]sulfonyl}-N,N-dimethylaniline], for which the “Liver Microsome Stability-% Left … (%) Monkey” value in data set [1] turned out to be 35.7%. Moreover, the “Liver Microsome Stability-% Left … (%) Mouse” value in data set [2] stood at 28.6%. Moreover, the “Liver Microsome Stability-% Left … (%) Rat” value in data set [3] is given as 33.9%. In data set [4], the “Liver Microsome Stability-% Left … (%) Human” value worked out at 53.1%. Also, the EC50 in data set [5] and in [7] was above 25000 nM throughout. The IC50 in [6], in [8], in data set [9] and in data set [10] was above 25000 nM each time.
`C=C1CN(S(=O)(=O)c2ccc(N(C)C)cc2)CCCN(CC2CCCCC2)CCCN(S(=O)(=O)N2CCC[C@@H](c3ccccc3)C2)C1` [A43, 4-{[9-(cyclohexylmethyl)-3-methylidene-5-{[(3S)-3-phenylpiperidin-1-y]sulfonyl}-1,5,9-triazacyclododecan-1-yl]sulfonyl}-N,N-dimethylaniline]: the “Liver Microsome Stability-% Left … (%) Monkey” value in data set [1] is given as 12%. Moreover, the “Liver Microsome Stability-% Left … (%) Mouse” value in [2] is 20.1%. The “Liver Microsome Stability-% Left … (%) Rat” value in data set [3] is recorded as 22.3%. Also, the “Liver Microsome Stability-% Left … (%) Human” value in [4] is 15.4%. Besides, the EC50 in [5] is above 25000 nM; in data set [7], 2970 nM. Also, the IC50 in data set [6] turned out to be 133 nM; in data set [8], 161 nM; in data set [9], 46.9 nM; in [10] it was 1210 nM.
With `CN(C)c1ccc(S(=O)(=O)N2CCCN(CC3CCCCC3)CCCN(S(=O)(=O)N3CCC(c4ccccc4)CC3)CC3(CC3)C2)cc1` [A29, 4-{[9-(cyclohexylmethyl)-13-[(4-phenylpiperidin-1-yl)sulfonyl]-5,9,13-triazaspiro[2.11]tetradecan-5-yl]sulfonyl}-N,N-dimethylaniline], in data set [1], the “Liver Microsome Stability-% Left … (%) Monkey” value is 19.5%. Also, the “Liver Microsome Stability-% Left … (%) Mouse” value in [2] is reported as 32.4%. The “Liver Microsome Stability-% Left … (%) Rat” value in data set [3] was found to be 43.3%. In addition, the “Liver Microsome Stability-% Left … (%) Human” value in [4] is 39.6%. In addition, the concentration for a half-maximal effect (EC50) in data set [5] and in data set [7] was above 25000 nM each time. For the same compound, the IC50 in data set [6] was 447 nM; in [8] it was 591 nM; in [9], 241 nM; in [10], above 25000 nM.
`C=C1CN(S(=O)(=O)c2ccc(C)cc2)CCCN(CC2CCCCC2)CCCN(S(=O)(=O)c2ccc(N(C)C)cc2)C1` [A4]: the “Liver Microsome Stability-% Left … (%) Monkey” value in data set [1] was 1.17%. Besides, the “Liver Microsome Stability-% Left … (%) Mouse” value in data set [2] is on record as 0.56%. Moreover, the “Liver Microsome Stability-% Left … (%) Rat” value in data set [3] turned out to be 1.17%. In data set [4], the “Liver Microsome Stability-% Left … (%) Human” value stood at 0.25%. The EC50 is above 25000 nM in data set [5] and 1220 nM in data set [7]. The values for the IC50 in data set [8], in [9] and in [10] were 311 nM, 93.9 nM and 3760 nM, respectively.
With `C=C1CN(S(=O)(=O)c2ccc(C)cc2)CCCN(CC2CCCCC2)CCCN(S(=O)(=O)c2ccc(OC)cc2)C1` [A3], the “Liver Microsome Stability-% Left … (%) Monkey” value in data set [1] came to 0.83%. Besides, the “Liver Microsome Stability-% Left … (%) Mouse” value in data set [2] was 0.09%. For the same compound, the “Liver Microsome Stability-% Left … (%) Rat” value in [3] turned out to be 0.37%. Further, in [4], the “Liver Microsome Stability-% Left … (%) Human” value came to 0.25%. The EC50 in data set [5] is above 25000 nM; in data set [7] it was 5080 nM. Besides, the IC50 in [8] came out at 638 nM; in data set [9], 241 nM; in data set [10], 11400 nM.
As for `C=C1CN(S(=O)(=O)c2c(F)cc(N(C)C)cc2F)CCCN(CC2CCCCC2)CCCN(S(=O)(=O)N2CCC(c3ccccc3)CC2)C1` [A86], the “Liver Microsome Stability-% Left … (%) Monkey” value in data set [1] worked out at 29.2%. Moreover, the “Liver Microsome Stability-% Left … (%) Mouse” value in [2] is recorded as 34.1%. Also, the “Liver Microsome Stability-% Left … (%) Rat” value in [3] was 39.9%. For the same compound, the “Liver Microsome Stability-% Left … (%) Human” value in data set [4] was determined as 41.3%. Also, the EC50 in [5] was above 25000 nM; in data set [7], 5630 nM. Besides, the results for the IC50 in data set [6], in data set [8] and in data set [10] were 395 nM, 429 nM and above 25000 nM, respectively.
With `C=C1CN(S(=O)(=O)c2ccc(C)cc2)CCCN(CC2CCCCC2)CCCN(S(=O)(=O)c2ccc(C)cc2)C1` [A2], in data set [1], the “Liver Microsome Stability-% Left … (%) Monkey” value is reported as 0.09%. In addition, the “Liver Microsome Stability-% Left … (%) Mouse” value in [2] is 0.09%. Also, the “Liver Microsome Stability-% Left … (%) Rat” value in data set [3] turned out to be 0.59%. For the same compound, in data set [4], the “Liver Microsome Stability-% Left … (%) Human” value stood at 0.04%. Besides, the EC50 is above 25000 nM in [5] and 10100 nM in data set [7]. The IC50 in [8] is 807 nM; in data set [9] it was 345 nM; in data set [10], above 25000 nM.
As for `C=C1CN(S(=O)(=O)c2ccc(N(C)C)cc2)CCCN(CC2CCCCC2)CCCN(S(=O)(=O)N2CCC(c3ccccc3)CC2)C1` [A35, 4-{[9-(cyclohexylmethyl)-3-methylidene-5-[(4-phenylpiperidin-1-yl)sulfonyl]-1,5,9-triazacyclododecan-1-yl]sulfonyl}-N,N-dimethylaniline hydrochloride], the “Liver Microsome Stability-% Left … (%) Monkey” value in data set [1] was determined as 13.6%. The “Liver Microsome Stability-% Left … (%) Mouse” value in [2] came to 20.9%. In addition, in data set [3], the “Liver Microsome Stability-% Left … (%) Rat” value was 30%. Besides, the “Liver Microsome Stability-% Left … (%) Human” value in data set [4] is 24.8%. The EC50 in data set [5] and in data set [7] was above 25000 nM in each case. Further, the values for the IC50 in [8], in [9] and in data set [10] were 244 nM, 83 nM and above 11900 nM, respectively.

Source of the values: patent US11578055B2, “Triazacyclododecansulfonamide (“TCD”)-based protein secretion inhibitors” (KEZAR LIFE SCIENCES, priority 2018, dated 2023).
